# Experimental data: patent US20060276423A1, “Survivin-directed RNA interference-compositions and methods” (priority 2005, published 2006)
# Starred links: 1 amine or outer side, 2 acyl side, 3 side chain; linkers in the order of their positions; H or OH if unused. Positions of bridges follow the written chain, without caps; N, C: chain ends. Non-standard residues stand in square brackets, D forms with d. Residues, ends and D or L forms follow the SMILES beside them. Chains are numbered I, II in the order given. Actinocin(9to1) = Cc1c2oc3c(C)ccc(C(=O)[*:1])c3nc-2c(C(=O)[*:2])c(N)c1=O; NMeV = CN[C@H](C(=O)O)C(C)C; Sar = CNCC(=O)O
# Test system: Human Umbilical Vein Endothelial (HUVE) cells
# Experiment: In vitro tube formation assay on BME
# Type: cell-based
# Conditions: most marked between 4 and 16 hours after plating
# Protocol: FIG. 7: Interference with Survivin-ΔEx3 inhibits angiogenesis in vitro. Human Umbilical Vein Endothelial (HUVE) cells were transfected with shRNAs of the instant invention or incubated with antibodies against Survivin-ΔEx3 and the results compared to HUVE cells treated with known inducers/inhibitors of in vitro angiogenesis. Treated/transfected cells were plated on growth factor reduced basement membrane extract (BME) to support in vitro tube formation. […] Quantitative data shown in (E) are mean±s.e. of 5 replicates per sample.
# Survivin ΔEx3 activity was disrupted in an in vitro tube formation assay by either downregulating Survivin ΔEx3 mRNA with an shRNA or inhibiting Survivin ΔEx3 protein with an anti-Survivin ΔEx3 antibody. To downregulate transcription, an shRNA targeting the exon2-exon-4 boundary, specific for Survivin ΔEx3 was used. A scrambled shRNA and a cocktail of 3 shRNAs targeting all Survivin isoforms were used as controls (FIG. 7). HUVECs were transfected with shRNA plasmids in combination with a plasmid encoding eGFP. The cells were sterile sorted by FACS to isolate the population of cells that was successfully transfected, based on eGFP fluorescence. […] Tube formation was quantified by counting the number of branches and tube length from 5 representative fields per replicate, in a double-blinded fashion.
structure (smiles),measurement,value
"Cc1c2oc3c(C)ccc(C(=O)N[C@@H]4C(=O)N[C@H](C(C)C)C(=O)N5CCC[C@H]5C(=O)N(C)CC(=O)N(C)[C@@H](C(C)C)C(=O)O[C@@H]4C)c3nc-2c(C(=O)N[C@@H]2C(=O)N[C@H](C(C)C)C(=O)N3CCC[C@H]3C(=O)N(C)CC(=O)N(C)[C@@H](C(C)C)C(=O)O[C@@H]2C)c(N)c1=O [actinomycin-D] (I: T[dV]P[Sar][NMeV] / II: T[dV]P[Sar][NMeV]; ester I:1-I:C, II:1-II:C; linker I:N-II:N via Actinocin(9to1))",tube formation on BME,inhibition of tube formation
